# Measured values as given in PMC5556019, “Targeting Apolipoprotein E/Amyloid β Binding by Peptoid CPO_Aβ17-21 P Ameliorates Alzheimer’s Disease Related Pathology and Cognitive Decline” (Scientific Reports, 2017).
# Numbered stars: 1 amine (or outer) side, 2 acyl side, 3 side chain; on linkers, the order of the positions; unused ones are H or OH. Bridge positions count the residues as written; N and C are the ends. Square brackets hold non-standard residues; d marks the D form. Peptide text beside a SMILES is read from it. ξ: configuration not given here. N(CH2CH2CO)Gly = O=C(CN(CCC(=O)[*:3])[*:1])[*:2]; Nphe = O=C(O)CNCc1ccccc1; Nleu = CC(C)CNCC(=O)O; ξP = O=C(O)C1CCCN1; Sar = CNCC(=O)O
# Tests used:
# [1] = tested on: apoE4 mediated Aβ40 aggregation; experiment: Thioflavin T assay of apoE4 mediated Aβ40 aggregation; assay type: biochemical, human
# Method: (§1) Peptide Aβ42 or peptoid CPO_Aβ17-21 P were incubated alone at a concentration of 100 µM over a period of 7–10 days at 37 °C in 100 mM Tris buffer (pH 7.4). […] In aggregation inhibition experiments, apoE4 was pre-incubated with CPO_Aβ17-21 P in a molar ratio of 1:2 for 6 hrs at 37 °C followed by addition to freshly reconstituted Aβ42 on ice (molar ratio 100:1:2, Aβ42:apoE4:peptoid). As a control, Aβ42 was also incubated with CPO_Aβ17-21 P at a molar ratio of 100:2. For peptide Aβ40 all the experiments were conducted under the same conditions as Aβ42 except the peptide concentration was 400 µM. The molar ratio of Aβ40:apoE4:CPO_Aβ17-21 P was 100:1:2. (400 µM Aβ40:4 µM apoE4:8 µM CPO_Aβ17-21 P). Fibril formation by the different peptides at various time points was evaluated by a standard Thioflavin-T assay according to previously published protocols, [33].The samples were diluted in buffer containing 50 mM glycine, 2 µM Thioflavin T pH 9.2, and read on a Molecular Devices SpectraMax M2 spectrophotometer (Sunnyvale, CA) at excitation and emission wavelengths 440 and 482 nm.
# [2] = tested on: apoE4 mediated Aβ42 aggregation; experiment: Thioflavin T assay of apoE4 mediated Aβ42 aggregation; assay type: biochemical, human
# Method: as §1
# APP/PS1 Tg mice = experiment: Cognitive tests (radial arm maze, object recognition); assay type: in vivo; settings: 0.2 mg per mouse i.p. twice weekly for 4 months
# Method: The effect of CPO_Aβ17-21 P on Aβ deposition was tested in APP/PS1 Tg mice with plaque pathology. This AD mouse model develops plaque pathology from the age of 3 months. Animals were divided into two groups and received intraperitoneally (i.p.) injections of 0.2 mg of CPO_ Aβ17–21 P per mouse in sterile saline (n = 11, 5 male, 6 female) or saline alone (n = 10, 5 male, 5 female) as a control twice weekly for 4 months, beginning at age 3 months. During the treatment, veterinary staff monitored animals for any signs of toxicity, such as changes in body weight, physical appearance, and altered behavior. Animals were sacrificed a week after administration of the last treatment dose and behavioral testing. All mouse care and experimental procedures were compliant with guidelines of animal experimentation and were approved by the Institutional Animal Care and Use Committee at the New York University School of Medicine. […]
# Spatial learning (working memory) was tested using a radial arm maze with eight radial 30-cm-long arms originating from the central space. […] The number of errors (entry into previously visited arms) was recorded during each session.
# The spontaneous object recognition test measures short-term memory. […] The amount of time spent exploring each object within a defined zone of the area was automatically recorded by a tracking system (San Diego Instruments, San Diego, CA).
structure (smiles),measurement,setting,value
CC(C)CN1CC(=O)N2CCCC2C(=O)N(Cc2ccccc2)CC(=O)N(Cc2ccccc2)CC(=O)N(C)CC(=O)N(CC(N)=O)CCC1=O (stereo not drawn) [CPO_Aβ17-21 P] ([Nleu][ξP][Nphe][Nphe][Sar][N(CH2CH2CO)Gly]-NH2; lactam N-6),inhibition of apoE4 mediated Aβ40 aggregation,"[1]; 400 µM Aβ40:4 µM apoE4:8 µM peptoid, apoE4 pre-incubated with peptoid 6 hrs 37 °C, p = 0.0034",significant inhibition
same,Aβ40 fibril formation with peptoid versus Aβ40 alone,"[1]; Aβ40 + peptoid without apoE4, molar ratio 100:2",no significant difference
same,inhibition of apoE4 mediated Aβ42 aggregation,"[2]; 100 µM Aβ42, molar ratio 100:1:2 Aβ42:apoE4:peptoid, apoE4 pre-incubated 6 hrs 37 °C, p = 0.0011",significant inhibition
same,Aβ42 fibril formation with peptoid versus Aβ42 alone,"[2]; Aβ42 + peptoid without apoE4, molar ratio 100:2",no significant difference
same,"radial arm maze, number of errors",APP/PS1 Tg mice; p < 0.01 two-way ANOVA treatment effect,significant cognitive improvement
same,novel object recognition,APP/PS1 Tg mice; p = 0.016,significant cognitive improvement
